Results from ChEMBL document CHEMBL1201862, “PubChem BioAssay data set” (2004).
The source made the active and inactive calls.

Legend:
Ephrin type-A receptor 4 = Ephrin type-A receptor 4 (Mus musculus, UniProt Q03137); assay: inhibitors of EphA4 binding to KYL peptide, primary screen, biochemical, colorimetric, mouse EphA4 (AID 689); format: functional
Vero [1] = assay: cells; format: functional, cell-based; settings: Chlorocebus sabaeus
[2] = HEp-2 cell cytotoxicity, dose response, cytotoxicity control for RSV inhibitor project, HTS (AID 2410); format: functional; settings: human respiratory syncytial virus
Vero [3] = assay: cells; format: functional; settings: Chlorocebus sabaeus
[4] = target: T1, Microphthalmia-associated transcription factor (Homo sapiens, UniProt O75030); assay: TRPM1 promoter luciferase signal decrease, dose response, MITF inhibitor project, cell-based, SK-MEL-5, cherry-picked, set 3 (AID 493073); format: functional
T1 sequence (O75030 whole entry): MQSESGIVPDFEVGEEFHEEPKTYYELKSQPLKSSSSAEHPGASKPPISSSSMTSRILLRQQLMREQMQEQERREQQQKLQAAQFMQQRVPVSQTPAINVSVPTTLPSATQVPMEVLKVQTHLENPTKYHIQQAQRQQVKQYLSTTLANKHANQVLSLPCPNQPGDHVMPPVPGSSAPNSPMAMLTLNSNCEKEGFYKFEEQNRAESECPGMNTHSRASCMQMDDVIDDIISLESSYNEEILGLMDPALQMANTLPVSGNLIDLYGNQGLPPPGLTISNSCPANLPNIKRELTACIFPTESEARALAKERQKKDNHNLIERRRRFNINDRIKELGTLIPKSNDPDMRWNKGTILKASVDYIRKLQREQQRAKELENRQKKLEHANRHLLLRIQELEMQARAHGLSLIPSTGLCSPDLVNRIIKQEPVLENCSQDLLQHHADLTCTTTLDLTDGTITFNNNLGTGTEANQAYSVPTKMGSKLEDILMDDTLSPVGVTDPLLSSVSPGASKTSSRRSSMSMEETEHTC

Vero [5] = assay: host cell cytotoxicity of antiviral hits, dose response, cytotoxicity control for West Nile virus antiviral project, secondary assay (AID 1650); format: functional; settings: Chlorocebus sabaeus
Vero [6] = assay: West Nile virus antiviral activity, cell-based, CPE readout (AID 1621); format: functional; settings: Chlorocebus sabaeus
Leucine aminopeptidase = target: T2, Leucine aminopeptidase (Plasmodium falciparum 3D7, UniProt Q8IL11); assay: P. falciparum M17LAP inhibitors, primary screen, biochemical, fluorogenic H-Leu-NHMec substrate, 1536-well (AID 1619); format: functional
T2 sequence (Q8IL11 whole entry): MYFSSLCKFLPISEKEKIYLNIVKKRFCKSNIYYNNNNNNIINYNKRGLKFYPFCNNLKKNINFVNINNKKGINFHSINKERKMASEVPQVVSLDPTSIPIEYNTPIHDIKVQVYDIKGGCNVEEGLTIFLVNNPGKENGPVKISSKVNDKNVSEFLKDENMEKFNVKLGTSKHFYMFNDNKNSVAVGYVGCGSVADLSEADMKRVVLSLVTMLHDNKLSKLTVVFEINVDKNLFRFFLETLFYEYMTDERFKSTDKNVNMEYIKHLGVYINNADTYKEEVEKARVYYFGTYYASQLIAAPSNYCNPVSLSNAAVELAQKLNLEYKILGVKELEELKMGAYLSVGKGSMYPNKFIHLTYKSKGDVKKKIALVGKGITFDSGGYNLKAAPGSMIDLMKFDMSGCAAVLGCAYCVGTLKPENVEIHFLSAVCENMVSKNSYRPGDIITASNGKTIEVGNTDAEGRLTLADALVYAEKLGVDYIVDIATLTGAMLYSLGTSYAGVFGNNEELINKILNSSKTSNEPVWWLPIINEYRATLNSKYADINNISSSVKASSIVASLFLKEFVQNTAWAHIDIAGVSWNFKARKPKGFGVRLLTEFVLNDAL

Procathepsin L = Procathepsin L (Homo sapiens, UniProt P07711); assay: cathepsin L inhibitors, dose response, counter-screen for M1/M17 aminopeptidase inhibitor project, biochemical, QFRET, 1536-well (AID 2214)
Protein RecA = target: T3, Protein RecA (Mycobacterium tuberculosis, UniProt P9WHJ3); assay: Fluorescence Cell-Free Homogeneous Dose Retest to Identify Inhibitors of RecA-Intein Splicing Activity. [Related pubchem assays (depositor defined):AID2097, AID2223, AID489010, AID492950]; format: functional
T3 sequence (P9WHJ3 whole entry): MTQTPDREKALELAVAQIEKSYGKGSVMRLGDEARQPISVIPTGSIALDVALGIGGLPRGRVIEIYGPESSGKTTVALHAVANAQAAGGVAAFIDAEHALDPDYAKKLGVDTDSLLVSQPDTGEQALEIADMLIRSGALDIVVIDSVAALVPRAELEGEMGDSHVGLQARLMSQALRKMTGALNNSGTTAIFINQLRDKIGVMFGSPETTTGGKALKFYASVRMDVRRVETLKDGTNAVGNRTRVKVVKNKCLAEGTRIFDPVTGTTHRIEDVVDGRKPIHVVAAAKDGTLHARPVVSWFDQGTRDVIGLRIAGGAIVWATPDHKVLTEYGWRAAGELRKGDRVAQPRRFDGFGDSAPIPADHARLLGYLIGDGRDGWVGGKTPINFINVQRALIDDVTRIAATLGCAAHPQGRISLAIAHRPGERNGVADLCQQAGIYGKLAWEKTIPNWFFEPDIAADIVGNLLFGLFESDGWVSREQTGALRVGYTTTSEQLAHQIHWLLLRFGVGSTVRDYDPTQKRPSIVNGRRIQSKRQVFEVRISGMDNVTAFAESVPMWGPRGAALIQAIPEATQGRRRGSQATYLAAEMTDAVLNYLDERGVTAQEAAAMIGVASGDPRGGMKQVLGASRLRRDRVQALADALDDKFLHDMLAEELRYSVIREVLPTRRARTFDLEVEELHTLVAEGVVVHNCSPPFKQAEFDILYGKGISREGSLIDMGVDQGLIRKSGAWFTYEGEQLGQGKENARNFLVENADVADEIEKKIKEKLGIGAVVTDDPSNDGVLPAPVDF

Aspartyl aminopeptidase = Aspartyl aminopeptidase (Plasmodium falciparum 3D7, UniProt Q8I2J3); assay: Counterscreen for inhibitors of M1 and M17 aminopeptidases: QFRET-based biochemical high throughput dose response assay for inhibitors of the Plasmodium falciparum M18 Aspartyl Aminopeptidase (PFM18AAP). [Related PubChem assays: 1619 (Screening assay (M17LAP inhibitors).), 1445 (Screening assay (M1AAP inhibitors).)]
[7] = target: T4, Replicative DNA helicase DnaB (Mycobacterium tuberculosis, UniProt P9WMR3); assay: DnaB intein splicing inhibitors, dose response, biochemical, cell-free fluorescence (AID 449749); format: functional
T4 sequence (P9WMR3 whole entry): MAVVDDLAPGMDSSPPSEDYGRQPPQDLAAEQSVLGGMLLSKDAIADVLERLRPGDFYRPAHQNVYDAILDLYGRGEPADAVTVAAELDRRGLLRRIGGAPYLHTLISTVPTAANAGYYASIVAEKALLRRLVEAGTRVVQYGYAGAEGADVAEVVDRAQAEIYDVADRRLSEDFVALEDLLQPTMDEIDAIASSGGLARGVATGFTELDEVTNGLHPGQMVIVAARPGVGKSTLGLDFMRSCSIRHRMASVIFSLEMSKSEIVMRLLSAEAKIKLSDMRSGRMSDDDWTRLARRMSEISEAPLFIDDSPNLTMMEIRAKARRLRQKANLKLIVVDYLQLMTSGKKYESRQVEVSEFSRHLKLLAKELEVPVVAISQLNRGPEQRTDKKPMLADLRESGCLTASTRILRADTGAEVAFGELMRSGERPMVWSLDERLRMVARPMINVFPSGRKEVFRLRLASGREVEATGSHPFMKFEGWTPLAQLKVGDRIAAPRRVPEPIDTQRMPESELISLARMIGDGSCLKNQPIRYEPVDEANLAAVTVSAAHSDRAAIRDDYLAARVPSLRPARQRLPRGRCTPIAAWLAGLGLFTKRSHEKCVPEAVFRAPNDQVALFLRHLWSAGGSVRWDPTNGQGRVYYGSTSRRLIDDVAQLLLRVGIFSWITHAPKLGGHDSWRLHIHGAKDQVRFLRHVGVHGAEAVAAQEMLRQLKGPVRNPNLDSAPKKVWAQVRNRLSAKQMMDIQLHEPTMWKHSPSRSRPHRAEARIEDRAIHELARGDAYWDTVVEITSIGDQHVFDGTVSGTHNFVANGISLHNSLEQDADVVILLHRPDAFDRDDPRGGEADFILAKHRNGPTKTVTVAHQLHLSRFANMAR

NADPH oxidase 1 = NADPH oxidase 1 (Homo sapiens, UniProt Q9Y5S8); assay: Late-stage luminescence-based cell-based dose response assay to identify inhibitors of NADPH oxidase 1 (NOX1): Purchased analogs 2.; format: functional
[8] = growth suppression of beta-catenin-knockout colon cells, dose response, cell-based, HCT116, human colon tumor (AID 1045); format: functional;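 further: HCT116 colon tumor cells with beta catenin knocked out; cells exposed to compound for 60 hours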
[9] = inhibitors of HIV Env-driven cell fusion, dose response, cherry-pick (AID 652057); format: functional, cell-based
[10] = cytotoxicity in KRAS-transformed pancreatic duct cells, primary screen, cell-based, fluorescence, HTS (AID 431); format: functional; settings: Homo sapiens;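 further: cell line used: HPDE-C7K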
[11] = ZM109 Env clade C HIV-1 fusion inhibitors, dose response, HeLa effector, CEM target cells, luciferase, cherry-pick (AID 652058); format: functional, cell-based
[12] = cytotoxicity in HPDE-C7 cells, cell-based, fluorescence, HTS (AID 430); format: functional; settings: Homo sapiens
[13] = off-target signal loss in HeLa-CEM21 co-culture – HeLa F-luc CTL cells, cherry-picked, counter-screen for HIV-1 Env fusion inhibitor project, dose response (AID 652040); format: functional, cell-based;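 further: potency for signal decrease marking cytotoxic or nonspecific inhibition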
[14] = growth suppression of PTEN-null colon cells, dose response, cell-based, HCT116 PTEN knockout (AID 1047); format: functional;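 further: HCT116 colon tumor cells with PTEN knocked out; cells exposed to compound for 60 hours before readout; potency for loss of cell viability measured by luminescence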
[15] = target: G-protein coupled receptor 55 (Homo sapiens, UniProt Q9Y2T6); assay: GPR55 antagonists blocking LPI-driven arrestin recruitment, primary screen, imaging, U2OS, beta-arrestin-GFP, LPI agonist (AID 2013); format: functional;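 further: antagonist potency measured as reduced agonist-driven arrestin aggregation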
[16] = inhibitors of clade B AD8 Env fusion, dose response, cell-based, cherry-pick (AID 652062); format: functional;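 further: luciferase signal from cell-cell fusion driven by HIV-1 clade B AD8 Env; potency is for inhibitors of fusion seen as a drop in luminescence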
Estrogen receptor beta [17] = target: T5, Estrogen receptor beta (Homo sapiens, UniProt Q92731); assay: ERβ–SRC-3 coactivator interaction inhibitors, confirmation, orthogonal assay, biochemical, ELISA, streptavidin-HRP readout (AID 1060)
Estrogen receptor beta [18] = target: T5, Estrogen receptor beta
[19] = NIH-3T3 fibroblast cytotoxicity, dose response, cytotoxicity control, cell-based, fluorescence, Alamar Blue, secondary assay (AID 2327); format: functional;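 further: NIH-3T3 mouse fibroblasts cultured with fluconazole at 8 µg/mL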
INS1 = assay: beta cell apoptosis inhibitors, cytokine rescue, dose response, luminescence, retest (AID 449756); format: functional, cell-based; settings: Rattus norvegicus;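 further: cell death triggered by IL-1 beta plus TNF-alpha plus IFN-gamma mixture; protective hits raise ATP signal compared with cytokine alone wells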
cells = format: functional
[20] = C. albicans growth with fluconazole, confirmation, fluorescence, retest (AID 2467); format: functional, cell-based
[21] = Luminescent dose response cell-based high throughput screening assay for inhibitors of the Janus kinase 2 mutant JAK2V617F. [Related pubchem assays: 1446 (Primary screen.), 1521 (Confirmation assay.), 1486 (Counter screen.)]; format: functional
[22] = target: Heat shock protein HSP 90-alpha (Homo sapiens, UniProt P07900); format: functional, organism-based
[23] = HepG2 cell cytotoxicity, dose response, cytotoxicity control for non-replicating M. tuberculosis project (AID 489018); format: functional; settings: Mycobacterium tuberculosis
[24] = Vero E6 cell cytotoxicity, dose response, cytotoxicity control for non-replicating M. tuberculosis project, secondary assay (AID 492998); format: functional, VeroE6; settings: Vero C1008
[25] = THP-1 cell cytotoxicity, dose response, cytotoxicity control for non-replicating M. tuberculosis project (AID 489025); format: functional
Large T antigen = Large T antigen (Simian virus 40, UniProt P03070); format: functional, Betapolyomavirus macacae;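 further: Confirmatory-stage PubChem screen for compounds that inhibit SV40 T antigen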
[26] = target: Protein-tyrosine kinase 2-beta (Homo sapiens, UniProt Q14289);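 further: potency of inhibitors of PYK2 kinase phosphorylation of poly-GT substrate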
[27] = target: Serine/threonine-protein phosphatase (Homo sapiens, UniProt Q9BPW0); assay: PP5 phosphatase inhibitors, dose response, biochemical, fluorescence (AID 2395)
[28] = target: Serine/threonine-protein phosphatase PP1-alpha catalytic subunit (Homo sapiens, UniProt P62136); assay: PP1 phosphatase inhibitors, dose response, biochemical, fluorescence (AID 2394)
Serine/threonine-protein phosphatase PP1-alpha catalytic subunit, sequence (P62136 whole entry): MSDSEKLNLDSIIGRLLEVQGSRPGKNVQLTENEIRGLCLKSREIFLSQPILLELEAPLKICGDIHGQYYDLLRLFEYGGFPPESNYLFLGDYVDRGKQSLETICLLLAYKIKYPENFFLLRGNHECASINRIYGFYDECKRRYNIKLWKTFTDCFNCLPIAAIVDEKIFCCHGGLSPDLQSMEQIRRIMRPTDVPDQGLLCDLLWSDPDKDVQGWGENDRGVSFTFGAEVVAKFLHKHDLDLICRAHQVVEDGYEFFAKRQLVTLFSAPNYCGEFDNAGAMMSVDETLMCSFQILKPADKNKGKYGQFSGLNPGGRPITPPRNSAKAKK

T5 sequence (Q92731 whole entry): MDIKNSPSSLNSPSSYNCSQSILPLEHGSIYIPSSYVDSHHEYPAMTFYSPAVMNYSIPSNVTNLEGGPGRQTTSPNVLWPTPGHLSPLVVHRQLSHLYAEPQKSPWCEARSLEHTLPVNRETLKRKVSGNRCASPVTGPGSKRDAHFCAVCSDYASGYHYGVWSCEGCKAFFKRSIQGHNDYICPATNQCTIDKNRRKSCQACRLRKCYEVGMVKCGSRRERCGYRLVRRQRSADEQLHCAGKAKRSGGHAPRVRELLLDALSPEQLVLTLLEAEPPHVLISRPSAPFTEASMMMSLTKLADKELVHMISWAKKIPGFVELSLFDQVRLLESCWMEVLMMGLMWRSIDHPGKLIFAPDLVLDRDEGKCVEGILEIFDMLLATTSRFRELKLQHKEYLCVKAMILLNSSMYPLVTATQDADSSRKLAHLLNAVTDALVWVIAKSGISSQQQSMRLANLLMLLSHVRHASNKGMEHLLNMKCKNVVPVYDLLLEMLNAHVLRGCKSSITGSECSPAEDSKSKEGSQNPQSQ
Aspartyl aminopeptidase, sequence (Q8I2J3 whole entry): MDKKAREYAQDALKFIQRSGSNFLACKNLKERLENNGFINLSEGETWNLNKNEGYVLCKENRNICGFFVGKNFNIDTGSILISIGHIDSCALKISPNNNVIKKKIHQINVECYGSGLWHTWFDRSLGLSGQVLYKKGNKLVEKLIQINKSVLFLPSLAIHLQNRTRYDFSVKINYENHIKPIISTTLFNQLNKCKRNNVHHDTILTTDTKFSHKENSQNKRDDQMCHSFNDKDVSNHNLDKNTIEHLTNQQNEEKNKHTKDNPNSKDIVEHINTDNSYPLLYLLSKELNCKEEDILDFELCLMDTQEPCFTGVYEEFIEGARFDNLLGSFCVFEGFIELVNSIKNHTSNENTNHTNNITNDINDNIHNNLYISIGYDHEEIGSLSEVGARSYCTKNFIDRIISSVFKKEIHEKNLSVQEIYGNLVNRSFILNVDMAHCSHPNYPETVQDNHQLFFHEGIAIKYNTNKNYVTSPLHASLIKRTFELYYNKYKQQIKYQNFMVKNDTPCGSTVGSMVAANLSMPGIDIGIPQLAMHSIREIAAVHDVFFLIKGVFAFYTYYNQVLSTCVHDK
Serine/threonine-protein phosphatase, sequence (Q9BPW0 whole entry): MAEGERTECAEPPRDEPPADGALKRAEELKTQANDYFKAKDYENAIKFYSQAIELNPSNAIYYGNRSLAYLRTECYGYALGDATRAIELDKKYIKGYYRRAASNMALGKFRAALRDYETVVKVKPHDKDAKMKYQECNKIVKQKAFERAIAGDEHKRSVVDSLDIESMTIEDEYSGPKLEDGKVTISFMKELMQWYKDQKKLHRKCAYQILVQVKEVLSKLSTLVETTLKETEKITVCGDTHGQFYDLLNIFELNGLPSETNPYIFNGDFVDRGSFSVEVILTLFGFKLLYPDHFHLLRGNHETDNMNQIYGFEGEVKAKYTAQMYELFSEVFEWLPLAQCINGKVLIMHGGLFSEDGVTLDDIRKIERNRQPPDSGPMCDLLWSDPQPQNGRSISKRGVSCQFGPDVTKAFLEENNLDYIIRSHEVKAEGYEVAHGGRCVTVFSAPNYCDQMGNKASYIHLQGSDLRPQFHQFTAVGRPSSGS
Procathepsin L, sequence (P07711 whole entry): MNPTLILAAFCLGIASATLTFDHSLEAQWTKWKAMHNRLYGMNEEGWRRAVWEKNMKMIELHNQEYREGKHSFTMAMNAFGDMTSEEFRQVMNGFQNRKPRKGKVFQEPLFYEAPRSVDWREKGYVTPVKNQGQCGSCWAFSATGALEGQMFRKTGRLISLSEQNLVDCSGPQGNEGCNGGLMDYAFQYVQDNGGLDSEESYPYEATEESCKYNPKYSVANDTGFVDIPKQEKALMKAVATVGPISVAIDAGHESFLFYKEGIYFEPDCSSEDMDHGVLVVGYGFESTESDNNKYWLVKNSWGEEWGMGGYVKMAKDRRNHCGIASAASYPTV
Large T antigen, sequence (P03070 whole entry): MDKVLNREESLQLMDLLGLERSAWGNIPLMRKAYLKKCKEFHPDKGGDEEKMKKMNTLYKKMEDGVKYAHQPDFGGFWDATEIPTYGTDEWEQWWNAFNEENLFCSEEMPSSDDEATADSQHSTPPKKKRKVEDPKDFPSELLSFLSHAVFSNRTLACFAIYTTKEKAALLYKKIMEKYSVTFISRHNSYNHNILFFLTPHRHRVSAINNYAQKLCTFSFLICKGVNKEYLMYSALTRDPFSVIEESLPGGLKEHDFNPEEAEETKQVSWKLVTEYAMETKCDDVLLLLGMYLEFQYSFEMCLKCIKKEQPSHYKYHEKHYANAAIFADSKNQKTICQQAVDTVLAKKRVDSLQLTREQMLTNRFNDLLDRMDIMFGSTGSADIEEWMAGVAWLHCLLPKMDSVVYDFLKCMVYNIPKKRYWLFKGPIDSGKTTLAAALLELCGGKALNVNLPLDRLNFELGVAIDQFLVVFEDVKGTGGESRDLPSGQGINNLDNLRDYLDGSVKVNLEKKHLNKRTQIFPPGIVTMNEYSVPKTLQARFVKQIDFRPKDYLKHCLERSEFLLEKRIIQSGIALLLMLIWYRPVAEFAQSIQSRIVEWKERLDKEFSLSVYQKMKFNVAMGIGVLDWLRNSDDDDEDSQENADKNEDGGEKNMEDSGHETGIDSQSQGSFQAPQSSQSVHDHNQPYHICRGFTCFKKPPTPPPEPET
G-protein coupled receptor 55, sequence (Q9Y2T6 whole entry, the tested form may be a part): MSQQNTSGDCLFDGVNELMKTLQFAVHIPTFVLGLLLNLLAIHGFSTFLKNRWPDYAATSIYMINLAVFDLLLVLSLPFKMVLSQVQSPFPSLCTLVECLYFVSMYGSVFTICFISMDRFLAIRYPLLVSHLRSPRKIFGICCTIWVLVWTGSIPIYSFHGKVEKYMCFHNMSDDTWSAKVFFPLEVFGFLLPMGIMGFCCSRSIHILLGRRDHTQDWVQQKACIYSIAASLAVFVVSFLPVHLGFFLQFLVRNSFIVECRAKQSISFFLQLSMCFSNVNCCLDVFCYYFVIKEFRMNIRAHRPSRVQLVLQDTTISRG
NADPH oxidase 1, sequence (Q9Y5S8 whole entry): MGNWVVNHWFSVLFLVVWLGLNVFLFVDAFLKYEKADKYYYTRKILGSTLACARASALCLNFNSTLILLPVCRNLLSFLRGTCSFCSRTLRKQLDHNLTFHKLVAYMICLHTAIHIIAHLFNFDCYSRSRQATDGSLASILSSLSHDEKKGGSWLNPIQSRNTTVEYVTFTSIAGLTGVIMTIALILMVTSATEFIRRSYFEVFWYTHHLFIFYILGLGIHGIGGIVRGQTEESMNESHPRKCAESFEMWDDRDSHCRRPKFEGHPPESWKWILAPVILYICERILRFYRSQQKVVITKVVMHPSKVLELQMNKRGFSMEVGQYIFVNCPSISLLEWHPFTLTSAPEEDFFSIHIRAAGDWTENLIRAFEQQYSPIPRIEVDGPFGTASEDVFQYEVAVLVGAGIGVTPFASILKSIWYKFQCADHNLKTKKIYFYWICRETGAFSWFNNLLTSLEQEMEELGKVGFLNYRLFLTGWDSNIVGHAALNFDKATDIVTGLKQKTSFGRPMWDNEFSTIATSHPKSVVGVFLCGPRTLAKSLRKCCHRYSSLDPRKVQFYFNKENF
Protein-tyrosine kinase 2-beta, sequence (Q14289 whole entry): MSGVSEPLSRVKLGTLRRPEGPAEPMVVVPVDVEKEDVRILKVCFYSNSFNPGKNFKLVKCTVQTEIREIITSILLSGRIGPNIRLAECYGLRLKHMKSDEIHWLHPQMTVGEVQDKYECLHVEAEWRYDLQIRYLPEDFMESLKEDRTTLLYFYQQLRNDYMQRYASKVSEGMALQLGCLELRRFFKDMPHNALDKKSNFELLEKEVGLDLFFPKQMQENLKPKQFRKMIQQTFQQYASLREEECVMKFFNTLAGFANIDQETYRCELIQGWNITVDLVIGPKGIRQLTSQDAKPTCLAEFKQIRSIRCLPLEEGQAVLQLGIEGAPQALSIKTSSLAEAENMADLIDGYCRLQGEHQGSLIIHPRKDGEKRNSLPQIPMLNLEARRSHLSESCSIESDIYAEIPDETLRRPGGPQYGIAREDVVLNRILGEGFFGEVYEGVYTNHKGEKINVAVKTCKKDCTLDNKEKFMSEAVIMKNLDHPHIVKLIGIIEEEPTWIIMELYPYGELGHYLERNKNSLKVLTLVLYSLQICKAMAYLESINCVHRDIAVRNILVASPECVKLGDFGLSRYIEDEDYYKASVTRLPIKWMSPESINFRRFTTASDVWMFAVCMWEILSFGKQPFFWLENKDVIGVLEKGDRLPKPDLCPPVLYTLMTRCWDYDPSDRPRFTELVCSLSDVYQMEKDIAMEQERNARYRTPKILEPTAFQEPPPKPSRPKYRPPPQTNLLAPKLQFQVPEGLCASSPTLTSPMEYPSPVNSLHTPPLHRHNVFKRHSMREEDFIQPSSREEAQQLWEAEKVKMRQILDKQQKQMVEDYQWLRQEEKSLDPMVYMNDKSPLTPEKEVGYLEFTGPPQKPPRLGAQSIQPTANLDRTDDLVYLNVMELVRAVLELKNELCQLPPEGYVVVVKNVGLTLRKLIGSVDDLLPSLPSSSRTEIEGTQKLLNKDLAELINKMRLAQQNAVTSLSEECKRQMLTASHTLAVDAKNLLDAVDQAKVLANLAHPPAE

Cc1cc(C=C2C(=O)N(C)C(=S)N(C)C2=O)c(C)n1C1CCCCC1
IC50 (Ephrin type-A receptor 4): 5.14 µM (active)

NCCCNc1nc(N)c([N+](=O)[O-])c(NC2CCCCC2)n1
IC50 (Vero [1]): 6 µM (active) | CC50 [2]: 18.2 µM (active) | CC50 (Vero [3]): 11.6 µM (active) | AC50 [4]: 6.36 µM (active) | CC50 (Vero [5]): 13.4 µM (active) | IC50 (Vero [6]): 8.89 µM (active)

O=[N+]([O-])c1cccc(-c2cc(O)n[nH]2)c1
IC50 (Leucine aminopeptidase): 6.99 µM (active) | IC50 (Procathepsin L): > 59.6 µM (not active) | EC50 (Protein RecA): 2.57 µM (active) | IC50 (Aspartyl aminopeptidase): > 73.5 µM (not active) | AC50 [7]: 7.14 µM (active)

Fc1nc(F)c(F)c(N/N=C/c2ccc(Br)cc2)c1F
IC50 (NADPH oxidase 1): > 17 µM (not active)

COc1ccc(CCN2C(=O)c3[nH]nc(-c4ccccc4O)c3C2c2ccc(C)cc2)cc1OC (stereo not drawn)
EC50 [8]: 21.6 µM (active) | AC50 [9]: 2.11 µM (active) | EC50 [10]: 9.9 µM (active) | AC50 [11]: 2.58 µM (active) | EC50 [12]: 8.11 µM (active) | AC50 [13]: 3.34 µM (active) | EC50 [14]: 21.1 µM (active) | IC50 [15]: 2.9 µM (active) | AC50 [16]: 6.57 µM (active)

CC1CCCCN1CC(=O)Nc1sc2c(c1C#N)CCC2 (stereo not drawn)
IC50 (Estrogen receptor beta [17]): > 50 µM (not active) | IC50 (Estrogen receptor beta [18]): > 50 µM (not active)

COc1cccc(F)c1C(C[N+](=O)[O-])c1c(N)n(C)c(=O)n(C)c1=O (stereo not drawn)
EC50 [19]: 5.27 µM (active) | AC50 (INS1): 7.85 µM (active) | IC50 (cells): 5.94 µM (active) | CC50 (Vero [3]): 8.24 µM (active) | EC50 [20]: 0.779 µM (active) | IC50 [21]: 1.06 µM (active) | AC50 [22]: 3.91 µM (active) | CC50 [23]: 16.2 µM (active) | CC50 [24]: 4.73 µM (active) | CC50 [25]: 7.28 µM (active)

CCc1ccc2nc3n[nH]c(N)c3cc2c1
IC50 (Large T antigen): 13.5 µM (active) | IC50 [26]: 24.9 µM (not active)

COc1ccc(Cn2c(N)c(C(=O)NCc3ccco3)c3nc4ccccc4nc32)cc1OC
IC50 [27]: 46.5 µM (not active) | IC50 [28]: > 67 µM (not active)
